# Measured values reported in patent US5084462A, “4-quinoline carboxylic acid derivatives useful as immunosuppressive agents” (The Du Pont Merck Pharmaceutical Company, priority 1990, dated 1992).
# Read-outs that look alike come from different tables or passages of the source.
# Assays:
# [1] = test system: contact sensitivity response to 2,4-dinitrofluorobenzene (DNFB); experiment: Contact sensitivity response to 2,4-dinitrofluorobenzene (DNFB) in mice; type: in vivo, Balb/c female mice; details: for inhibition in vivo at 1 mg/kg: 1.0 mg/kg oral; for inhibition in vivo at 0.4 mg/kg: read-out: % Suppression, Table 2, ear swelling, 0.4 mg/kg oral; for inhibition in vivo at 2 mg/kg: read-out: % Suppression, Table 2, ear swelling, 2.0 mg/kg oral
# Method: This is an antigen-specific T-cell mediated inflammatory response that represents delayed-type hypersensitivity reactions seen in both humans and other mammals.
# Balb/c female mice (.perspectiveto.20g, Charles River) were sensitized on the shaved abdomen with 25 μl of 0.5% 2,4-dinitrofluorobenzene ([…], Eastman Kodak Co.) in a vehicle of 4:1 acetone:olive oil on days 0 and 1. Mice were ear challenged with 20 μl of 0.2% DNFB in a vehicle of 4:1 acetone:olive oil on day 5. A constant area of the ears was measured immediately before challenge and 24 hours later with an engineer's micrometer. Ear swelling was expressed as the difference in ear thickness before and after challenge in units of 10^-4 inches±SEM. Percent suppression was calculated as: [formula] […] Negative controls were not sensitized on days 0 and 1 but were ear challenged on day 5. Ten mice were used per group.
# [2] = test system: human mixed lymphocyte reaction; experiment: Human mixed lymphocyte reaction (3H-thymidine incorporation); type: cell-based; details: Table 4, human PBMC of two donors, 6 days
# Source text: Contact sensitivity to DNFB has teen extensively studied and characterized in the mouse to determine the regulatory mechanisms involved in cell mediated immune responses (Claman, et al., Immunol Rev 50:105, 1980). This is an antigen-specific T-cell mediated inflammatory response that represents delayed-type hypersensitivity reactions seen in both humans and other mammals. The primary use of the human mixed lymphocyte reaction is for the determination of transplantation compatibility between the donor (graft) and the recipient (Park and Good, p. 71. In Yunis, et al., Tissue typing and organ transplantation. 1973 Academic Press Inc., N.Y.).
# Blood was obtained by venipuncture from two nonrelated human donors. Peripheral blood mononuclear cells (PBMC) were isolated from these samples by using the Leuco Prep procedure (Becton-Dickinson). PBMC were washed twice in phosphate buffered saline (without calcium and magnesium) and the separate cell isolations were adjusted to the appropriate concentrations in media (RPMI 1640) supplemented with 10% human AB serum and […] gentamicin. Cells from donor A (2×10^5) were incubated with cells from donor B (2×10^5) in 96 well round bottom microliter plates at 37° C., 5% CO2 for 6 days. Eighteen hours prior to harvesting cells from the plates, all wells were pulsed with 1 μCi of ^3 H-thymidine. Cells from the plates were harvested on day 6 and ^3 H-thymidine incorporation was determined using a scintillation counter.
# [3] = test system: adjuvant-induced arthritis; experiment: Adjuvant-induced arthritis in rats; type: in vivo, Male Lewis rats; details: for ED50: Rattus norvegicus, 432 h, adjuvant-induced arthritis; for Non-Injected Hind-Paw Volume / % Suppression: day 18; for % Suppression: Table 5, non-injected hind paw
# Method: Rat adjuvant-induced arthritis represents a systemic inflammatory disease with bone and cartilage changes similar to that observed in rheumatoid arthritis, but in an accelerated time span (Pearson, Arth Rheum 7:80, 1964).
# Male Lewis rats (Charles River) weighing 160-210 grams were injected subcutaneously with 0.1 ml of Freund's Complete Adjuvant containing 5 mg of M. butyricum/ml of paraffin oil (Difco Laboratories) into the plantar region of the right hind paw. Paraffin oil was injected for non-arthritic controls. Ten rats were used per group. Compounds were prepared in 0.25% Methocel® (Dow Chemical Co) with one drop of Tween® 80 per 10 ml of Methocel®. Animals were dosed every day beginning on the day of paw injection until day 18. The weight of each animal was recorded every other day beginning on the day of the paw injections. On day 18 the animals were weighed, and the non-injected hind paw volume was measured using a Ugo Basile Volume Differential Plethysmometer.
# [4] = Mus musculus, po, 24 h, read-out: % Suppression, Table 2, ear swelling, 10.0 mg/kg oral
# [5] = Mus musculus, po, 24 h, read-out: % Suppression, Table 2, ear swelling, 20.0 mg/kg oral
# [6] = Table 5, 10 mg/kg daily to day 18
# [7] = Mus musculus, po, 24 h, Table 3, ear swelling, 20.0 mg/kg oral, read-out: % Suppression
compound,measurement,setting,value
"C[C@@H]1C[C@H]2[C@@H]3CCC4=CC(=O)C=C[C@]4(C)[C@@]3(F)[C@@H](O)C[C@]2(C)[C@@]1(O)C(=O)CO [Dexamethasone, reference compound]",inhibition in vivo at 0.2 mg/kg,"[1]; Mus musculus, po, 24 h, Table 2, ear swelling, 0.2 mg/kg oral, read-out: % Suppression",28.8%
same,inhibition in vivo at 1 mg/kg,"[1]; Mus musculus, po, 24 h, Table 2, ear swelling, read-out: % Suppression",44.3%
same,inhibition in vivo at 5 mg/kg,"[1]; Mus musculus, po, 24 h, Table 2, ear swelling, 5.0 mg/kg oral, read-out: % Suppression",68.6%
same,inhibition in vivo at 10 mg/kg,"[1]; Mus musculus, po, 24 h, Table 2, ear swelling, 10.0 mg/kg oral, read-out: % Suppression",79.9%
same,inhibition in vivo at 1 mg/kg,"[1]; Mus musculus, po, 24 h, Table 3, ear swelling, read-out: % Suppression",43.8%
same,ED50,"[1]; Mus musculus, Table 2, suppression of ear swelling, oral, days -2 through 6, read-out: ED50",1.5 mg/kg
same,"Ear Swelling (units ± SEM), increase in ear thickness from day 5 to day 6","[1]; Table 2, 0.2 mg/kg oral",52.95 ± 3.39 10^-4 inches
same,"Ear Swelling (units ± SEM), increase in ear thickness from day 5 to day 6","[1]; Table 2, 1.0 mg/kg oral",41.60 ± 2.46 10^-4 inches
same,"Ear Swelling (units ± SEM), increase in ear thickness from day 5 to day 6","[1]; Table 2, 5.0 mg/kg oral",23.79 ± 2.71 10^-4 inches
same,"Ear Swelling (units ± SEM), increase in ear thickness from day 5 to day 6","[1]; Table 2, 10.0 mg/kg oral",15.50 ± 2.10 10^-4 inches
same,"Ear Swelling (units ± SEM), increase in ear thickness from day 5 to day 6","[1]; Table 3, 1.0 mg/kg oral",42.20 ± 2.61 10^-4 inches
"Cc1c(-c2ccc(-c3ccccc3)cc2)nc2cccc(Cl)c2c1C(=O)[O-].[Na+] [Example 1, Sodium 2-(1,1'-Biphenyl-4-yl)-5-chloro-3-methyl-quinoline-4-carboxylate]",ED50,"[1]; Mus musculus, po",3.5 mg/kg
same,inhibition in vivo at 0.4 mg/kg,"[1]; Mus musculus, po, 24 h",11%
same,inhibition in vivo at 2 mg/kg,"[1]; Mus musculus, po, 24 h",23.4%
same,inhibition in vivo at 10 mg/kg,[1]; [4],92.7%
same,inhibition in vivo at 20 mg/kg,[1]; [5],93.9%
same,"Ear Swelling (units ± SEM), increase in ear thickness from day 5 to day 6","[1]; Table 2, 0.4 mg/kg oral",66.05 ± 4.32 10^-4 inches
same,"Ear Swelling (units ± SEM), increase in ear thickness from day 5 to day 6","[1]; Table 2, 2.0 mg/kg oral",56.94 ± 4.80 10^-4 inches
same,"Ear Swelling (units ± SEM), increase in ear thickness from day 5 to day 6","[1]; Table 2, 10.0 mg/kg oral",6.10 ± 0.75 10^-4 inches
same,"Ear Swelling (units ± SEM), increase in ear thickness from day 5 to day 6","[1]; Table 2, 20.0 mg/kg oral",5.20 ± 1.17 10^-4 inches
same,IC50,[2],9.6 nM
same,ED50,[3]; Table 5 footnote,21 mg/kg
same,Weight Gain,[3]; [6],-14.0 ± 4.2 g
same,Non-Injected Hind-Paw Volume,"[3]; Table 5, 10 mg/kg daily",1.87 ± 0.08 mL
same,Weight Gain,"[3]; Table 5, 17.5 mg/kg daily to day 18",2.8 ± 5.3 g
same,Non-Injected Hind-Paw Volume,"[3]; Table 5, 17.5 mg/kg daily",1.72 ± 0.08 mL
same,Weight Gain,"[3]; Table 5, 25.0 mg/kg daily to day 18",20.6 ± 6.3 g
same,Non-Injected Hind-Paw Volume,"[3]; Table 5, 25.0 mg/kg daily",1.34 ± 0.10 mL
same,% Suppression,[3]; 10 mg/kg daily,1.4%
same,% Suppression,[3]; 17.5 mg/kg daily,20.8%
same,% Suppression,[3]; 25.0 mg/kg daily,70.6%
"Cc1c(-c2ccc(-c3ccccc3F)cc2)nc2ccc(F)cc2c1C(=O)[O-].[Na+] [Example 2, Sodium 2-(2'-Fluoro-1,1'-biphenyl-4-yl)-6-fluoro-3-methylquinoline-4-carboxylate]",ED50,"[1]; Mus musculus, po",0.95 mg/kg
same,inhibition in vivo at 0.4 mg/kg,"[1]; Mus musculus, po, 24 h",30.2%
same,inhibition in vivo at 2 mg/kg,"[1]; Mus musculus, po, 24 h",66.1%
same,inhibition in vivo at 10 mg/kg,[1]; [4],92.3%
same,inhibition in vivo at 20 mg/kg,[1]; [5],94.5%
same,"Ear Swelling (units ± SEM), increase in ear thickness from day 5 to day 6","[1]; Table 2, 0.4 mg/kg oral",51.95 ± 2.33 10^-4 inches
same,"Ear Swelling (units ± SEM), increase in ear thickness from day 5 to day 6","[1]; Table 2, 2.0 mg/kg oral",25.61 ± 3.39 10^-4 inches
same,"Ear Swelling (units ± SEM), increase in ear thickness from day 5 to day 6","[1]; Table 2, 10.0 mg/kg oral",6.40 ± 1.09 10^-4 inches
same,"Ear Swelling (units ± SEM), increase in ear thickness from day 5 to day 6","[1]; Table 2, 20.0 mg/kg oral",4.75 ± 1.20 10^-4 inches
same,IC50,[2],25 nM
same,ED50,[3]; Table 5 footnote,< 10 mg/kg
same,Weight Gain,"[3]; Table 5, 2.0 mg/kg daily to day 18",-1.5 ± 3.6 g
same,Non-Injected Hind-Paw Volume,"[3]; Table 5, 2.0 mg/kg daily",1.62 ± 0.05 mL
same,Weight Gain,[3]; [6],65.6 ± 5.2 g
same,Non-Injected Hind-Paw Volume,"[3]; Table 5, 10 mg/kg daily",1.15 ± 0.02 mL
same,% Suppression,[3]; 2.0 mg/kg daily,34.5%
same,% Suppression,[3]; 10 mg/kg daily,96.2%
same,Toxicity,"[3]; Table 5 footnote, 25.0 mg/kg daily",Toxic by day 7
Cc1c(-c2ccc(Oc3ccccc3)cc2)nc2ccc(F)cc2c1C(=O)O [Example 3],inhibition in vivo at 20 mg/kg,[1]; [7],83.5%
same,"Ear Swelling (units ± SEM), increase in ear thickness from day 5 to day 6","[1]; Table 3, 20.0 mg/kg oral",14.25 ± 1.49 10^-4 inches
Cc1c(-c2ccc(-c3ccc(Br)cc3)cc2)nc2ccc(F)cc2c1C(=O)O [Example 4],inhibition in vivo at 20 mg/kg,[1]; [7],87%
same,"Ear Swelling (units ± SEM), increase in ear thickness from day 5 to day 6","[1]; Table 3, 20.0 mg/kg oral",11.80 ± 1.03 10^-4 inches
Cc1ccc2nc(-c3ccc(-c4ccccc4)cc3)c(C)c(C(=O)O)c2c1 [Example 5],inhibition in vivo at 20 mg/kg,[1]; [7],53.4%
same,"Ear Swelling (units ± SEM), increase in ear thickness from day 5 to day 6","[1]; Table 3, 20.0 mg/kg oral",35.47 ± 2.31 10^-4 inches
Cc1c(-c2ccc(SC(C)C)cc2)nc2ccc(F)cc2c1C(=O)O [Example 6],inhibition in vivo at 20 mg/kg,[1]; [7],21.1%
same,"Ear Swelling (units ± SEM), increase in ear thickness from day 5 to day 6","[1]; Table 3, 20.0 mg/kg oral",58.20 ± 4.63 10^-4 inches
